{"source": "the OPERA property sets (Mansouri et al. 2018)", "data": [{"conditions": "not given", "values": [{"smiles": "CCOP(=S)(OCC)SCS(=O)(=O)CC", "logP": 1.99}]}, {"conditions": "20 °C", "units": {"solubility": "µM"}, "values": [{"smiles": "CCOP(=S)(OCC)SCCSCC", "solubility": 59.4}, {"smiles": "CCOP(=S)(OCC)SCS(=O)CC", "note": "(stereo not given)", "solubility": 28900}, {"smiles": "CCOP(=S)(OCC)SCCS(=O)(=O)CC", "solubility": 2880}, {"smiles": "CCOP(=S)(OCC)Oc1ccc(S(C)(=O)=O)cc1", "solubility": 2300}, {"smiles": "COP(=S)(OC)Oc1cc(Cl)c(Br)cc1Cl", "solubility": 0.82}, {"smiles": "CCOP(=O)(OCC)Oc1ccc([N+](=O)[O-])cc1", "solubility": 8720}, {"smiles": "CCOP(=S)(OCC)SCS(=O)C(C)(C)C", "note": "(stereo not given)", "solubility": 3610}, {"smiles": "CCOP(=S)(OCC)SCS(=O)(=O)CC", "solubility": 2950}]}, {"conditions": "25 °C", "units": {"solubility": "µM"}, "values": [{"smiles": "CNC(=O)ON=CC(C)(C)SC", "solubility": 31700}]}]}
